According to patent publication US20240408066A1, “Treatment Of Conditions Associated With Stress Granule Formation” (priority 2022, published 2024):

Tests used:
[1] = molecular target: T1, recombinant mouse TIA1 with human recombinant tau (0N4R isoform) (Mus musculus, UniProt P52912); experiment: TIA1-induced oligomerization of tau protein in vitro (oTau immunoblotting); format: biochemical; settings: fixed ratio of TIA1:tau; as a function of drug concentration and time (0.5-2 h); FIG. 5 right panels
T1 sequence (P52912 1-386): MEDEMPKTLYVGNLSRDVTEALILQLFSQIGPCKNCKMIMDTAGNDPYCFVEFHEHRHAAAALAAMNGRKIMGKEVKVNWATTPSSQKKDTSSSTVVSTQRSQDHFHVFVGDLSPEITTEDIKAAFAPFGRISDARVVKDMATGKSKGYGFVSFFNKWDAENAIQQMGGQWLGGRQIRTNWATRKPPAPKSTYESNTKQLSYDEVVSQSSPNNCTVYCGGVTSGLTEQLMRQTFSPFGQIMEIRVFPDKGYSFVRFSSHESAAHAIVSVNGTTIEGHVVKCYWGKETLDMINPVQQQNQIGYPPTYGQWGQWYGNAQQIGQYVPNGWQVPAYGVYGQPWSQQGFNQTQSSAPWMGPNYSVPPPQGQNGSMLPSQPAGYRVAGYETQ
Description: Oligomeric tau is the most pathological configuration of the protein.
Purified full-length recombinant mouse TIA1 protein was generated from standard cloning methods followed by standard protocols for bacterial expression and purification. Recombinant TIA1 was incubated with commercially available human recombinant tau (ON4R isoform) obtained from R&D Systems at the indicated molar ratios/concentrations. After indicated incubation times, reactions were spotted onto nitrocellulose membrane followed by immunoblotting with primary antibodies that recognize oligomeric tau (oTau) or TIA1. Fluorescently labeled secondary antibody staining against indicated primary antibodies was followed by quantitative image analysis using a Li-COR Odyssey system. Experiment A evaluates the impact of TIA1:tau molar ratio on tau oligomerization and whether OTX0049 at a single test concentration interferes with TIA1-dependent tau oligomerization (FIG. 5, left panels). The experiment represented in the right panels measure the dose-response of OTX0049 and OTX1017 (Formula I in claims) inhibition of TIA1-dependent tau oligomerization at a fixed ratio of recombinant TIA1:tau (FIG. 5, right panels).

rTg4510 transgenic mice = experiment: Cellular pathology in rTg4510 mouse model (GFAP and NeuN immunohistochemistry); format: in vivo; settings: 5 mg/kg i.p. once per week for 7 weeks beginning at 77 d; FIG. 7
Description: rTg4510 transgenic mice are a well-established model of tauopathy based on expression of a human tau mutant (P301L). […] Given that these cellular pathological events are driven by tau, TIA1 antagonists compounds should limit tau-dependent pathology.
rTg4510 transgenic mice were treated with DMSO vehicle or OTX1017 (Formula I in claims 5 mg/kg i.p.) once per week for 7 weeks beginning at 77 d. Hippocampal slices were then prepared for conventional immunohistochemistry with GFAP (neuroinflammation marker) and NeuN (neuronal marker), followed by quantitation using NIH ImageJ. GFAP signal was quantitated in cortex (ctx) (white arrows). NeuN staining was used to calculate average thickness of the CA1 pyramidal cell layer for each slice.

PS19 transgenic mice = experiment: Tau oligomerization in vivo in PS19 mice (hippocampal dot blots, oligomeric tau-specific antibody); set-up: species or system mouse; settings: 10 mg/kg i.p. once per week for 6 weeks; FIG. 10
Description: FIG. 10 illustrates the inhibition of tau oligomerization in vivo by OTX1017. Mice were treated with 10 mg/kg OTX1017 i.p., once per week, for 6 weeks, hippocampal extracts were prepared, and dot blots were performed with an oligomeric tau-specific antibody.

[2] = molecular target: T2, recombinant mouse TIA1-ECFP+TIA1-EYFP (Mus musculus, UniProt P52912); experiment: In vitro FRET assay of TIA1 multimerization; format: binding; settings: TIA1-ECFP+TIA1-EYFP 10 ug/ml each; test compound 0-40 μM; FIG. 4
T2 construct: Full-length mouse TIA1 cDNA was generated from standard RT-PCR from total mouse brain RNA; 6xHis (N); made in house; host or cells: E. coli BL21 AI
T2 sequence (P52912 1-386) 1: T1 sequence (P52912 1-386)
T2 sequence (P52912 1-386) 2: T1 sequence (P52912 1-386)
Excerpt: The assay that takes advantage of a phenomenon involving the transfer of energy between two compatible fluorescent proteins. In particular, the fluorescent proteins CFP and YFP (cyan fluorescent protein and yellow fluorescent protein, respectively) emit fluorescent light of characteristic wavelengths when excited by laser radiation. CFP or YFP was tethered to a TIA1 protein and the hybrid proteins were mixed together. Subsequently, if TIA1 self-interacts (dimerizes), the tethered CFP and YFP proteins are brought into close proximity to one another. When this occurs, laser excitation of CFP leads to a release of energy that is absorbed by YFP, which can be detected in the assay. This assay can be employed in the presence of other agents, such as small molecule compounds, to determine whether their presence has any effect on dimerization of TIA1. This screen was employed to assay compounds in a chemical library in order to identify compounds that effect TIA1 binding and dimerization or multimerization.
One way to establish that test compounds bind recombinant TIA1 is to perform a Förster resonance energy transfer (FRET) experiment. Binding of test compound to monomeric protein is inferred by a change in FRET signal upon ligand-induced multimerization of suitably tagged (c.g.,-ECFP and -EYFP) fusion proteins. In other words, not only must the compound bind to TIA1-ECFP and TIA1-EYFP, it must also induce a change in multimeric state such that energy can be transferred between the ECFP and EYFP tags. […]
Plasmids encoding mouse TIA1-ECFP and TIA1-EYFP were generated by standard PCR-based cloning techniques. […] Samples are read in real-time with a fluorescence microplate reader. To measure donor FRET, samples are excited at 430+30 nm, and […] is measured at 480+20 nm. Compounds that drive multimerization of the fusion proteins cause proximal localization of the ECFP and EYFP moieties, leading to a reduction in ECFP fluorescence with ECFP excitation due to energy transfer to EYFP. […]

SMILES: Cc1ccc(C)c(-n2[se]c3cc(F)ccc3c2=O)c1 [OTX1017]
- TIA1-dependent tau oligomerization, dose-response [1]: drug-dependent reduction of TIA1-dependent tau oligomerization
- GFAP staining in the cortex (neuroinflammation) (rTg4510 transgenic mice): ameliorated
- thickness of the CA1 pyramidal layer neurons (NeuN staining) (rTg4510 transgenic mice): ameliorated by drug treatment
- oligomeric tau in the hippocampus (PS19 transgenic mice): significantly reduces the presence of oligomeric tau in the hippocampus
- multimerization of TIA1 (FRET signal) [2]: Induce Multimerization of Recombinant Mouse TIA1

SMILES: Cc1ccc(C)c(-n2[se]c3cncnc3c2=O)c1 [OTX1018]
- multimerization of TIA1 (FRET signal) [2]: Induce Multimerization of Recombinant Mouse TIA1

SMILES: CCOC(=O)c1ccc(-n2sc3ccccc3c2=O)cc1 [Formula III]
- multimerization of TIA1 (FRET signal) [2]: demonstrate FRET signals indicative of TIA1 multimerization
